Experimental data reported in ChEMBL document CHEMBL5729279, “Cycloalkyl-diamines for the treatment of inflammation” (2022).

Molecular target: Sigma non-opioid intracellular receptor 1 (Homo sapiens, UniProt Q99720)
Assay: Pharmacological Activity: Ki determinations were generously provided by the National Institute of Mental Health's Psychoactive Drug Screening Program (PDSP).

Sequence of Sigma non-opioid intracellular receptor 1 (Q99720 whole entry): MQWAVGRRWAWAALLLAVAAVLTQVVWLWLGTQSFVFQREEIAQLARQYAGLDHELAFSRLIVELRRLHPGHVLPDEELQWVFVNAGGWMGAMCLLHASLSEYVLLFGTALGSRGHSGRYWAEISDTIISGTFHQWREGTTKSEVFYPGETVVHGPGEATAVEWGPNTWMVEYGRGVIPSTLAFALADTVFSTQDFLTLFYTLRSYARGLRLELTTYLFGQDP

CN[C@@]1(c2ccccc2Cl)CCCCC1NCCCN1CCCC1 (stereo partly specified) showed a Ki of 37.2 nM.
